{"source": "patent US20120202296A1", "about": "“SYSTEM, METHOD, AND APPARATUS FOR MEASURING AFFINITY CONSTANTS” (The Trustees of Columbia University in the City of New York, priority 2011, published 2012)", "key": {"[1]": {"system": "control DNA (6-bp EcoR1 recognition sequence altered)", "test": "Time-resolved SH signal control experiment with DNA whose recognition sequence is altered", "format": "binding", "details": "control DNA without EcoR1 recognition sequence"}, "[2]": {"system": "ds biotinylated-DNA (90 bp) containing an EcoR1 recognition sequence", "test": "Time-resolved second harmonic (SH) signal on adding EcoR1 to DNA-coated microparticles", "format": "binding", "details": "PSC-DNA microparticles", "source_text": "A particular example of how to use the above quantification method and system was experimentally validated as follows. An experimental apparatus was used to measure a time-resolved SH signal that was similar to that described in Yan E C Y, Liu Y, Eisenthal K B (1998) “New method for determination of surface potential of microscopic particles by second harmonic generation.” J Phys Chem B 102:6331-6336 which is hereby incorporated by reference in its entirety. A Princeton Instruments CCD camera was used to acquire light samples. The fundamental laser frequency was centered at 810 nm with approximately 400 mW of average power and a pulse width of approximately 75 femtoseconds (10^−15 sec.; fs). […] Polystyrene carboxylate (PSC) microparticle-DNA bioconjugate particles were prepared in an analogous way to previous synthetic reports.\nFIG. 1A is a figurative illustration of the resulting particles 6. A biotin binding protein 18, NeutrAvidin (NA), is linked to the PSC surface (diameter ¼ 1.0 μm, Invitrogen). A PSC-NA solution with a concentration of 5.6×10^9 particles/mL, was suspended in water at pH ¼ 7.5. To this solution ds biotinylated-DNA 12 (90 bp, Integrated DNA Technologies) containing an EcoR1 recognition sequence 8, which is 15 bp from the end attached to the microparticle, was added to a DNA concentration of 0.69 nM and incubated at 55° C. for 1 h. […]"}}}
{"substance": "EcoR1: restriction enzyme that binds its DNA recognition sequence, bends and cleaves the DNA", "values": [{"measurement": "jump in the SH signal when EcoR1 is added", "setting": "[1]", "result": "did not show any jump in the SH signal"}, {"measurement": "jump of the SH signal when EcoR1 is added", "setting": "[2]; 2 mM NaCl", "result": 9.5, "unit": "%"}, {"measurement": "jump of the SH signal when EcoR1 is added", "setting": "[2]; NaCl concentration 8.50 mM, NaCl in place of Mg2+", "result": 30, "unit": "%"}]}
